From ChEMBL document CHEMBL1201862, “PubChem BioAssay data set” (2004)
Activity calls are given as the source filed them.

Key:
[1] = molecular target: T1, Voltage-gated N-type calcium channel alpha-1B subunit/Amyloid beta A4 precursor protein-binding family A member 1 (Homo sapiens, UniProt Q00975+Q02410); type: protein assay
[2] = molecular target: Peroxisome proliferator-activated receptor gamma/Nuclear receptor corepressor 2 (Homo sapiens, UniProt P37231+Q9Y618); type: functional
Genome polyprotein = Genome polyprotein (Hepatitis C virus, UniProt Q2Q167); assay: HCV core protein dimerization inhibitors, dose response, biochemical, TR-FRET (AID 2159); parameters: species or system Hepacivirus hominis;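 note: blocks dimerization of HCV core protein measured by TR-FRET between tagged core106 pairs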
[3] = molecular target: Photoreceptor-specific nuclear receptor (Homo sapiens, UniProt Q9Y5X4); type: functional;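 note: potency for compounds that break the NR2E3 corepressor complex and count as activators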
[4] = molecular target: T1, Voltage-gated N-type calcium channel alpha-1B subunit/Amyloid beta A4 precursor protein-binding family A member 1; type: protein assay; remark: listed apart in the source
[5] = molecular target: Protein-tyrosine kinase 2-beta (Homo sapiens, UniProt Q14289);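 note: potency of inhibitors of PYK2 kinase phosphorylation of poly-GT substrate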
[6] = molecular target: Melanin-concentrating hormone receptor 1 (Homo sapiens, UniProt Q99705); assay: Fluorescence-based counterscreen for antagonists of the G-protein coupled receptor 7 (GPR7): cell-based high throughput dose response assay to identify antagonists of the melanin-concentrating hormone receptor 1 (MCHR1).; type: functional
[7] = molecular target: Neuropeptides B/W receptor type 1 (Homo sapiens, UniProt P48145); assay: Fluorescence-based dose response cell-based high throughput screening assay to identify antagonists of the G-protein coupled receptor 7 (GPR7). [Related pubchem assays: 1952 (Screening assay (GPR7 antagonists).), 1880 (Summary AID.)]; type: functional
[8] = SNU-C1 cell viability reduction, dose response, CellTiter-Glo luminescence (AID 1117323); type: functional, cell-based
Vasopressin V1a receptor = Vasopressin V1a receptor (Homo sapiens, UniProt P37288); assay: Counterscreen for Oxytocin Receptor (OXTR) agonists: Fluorescence-based cell-based high throughput dose response assay to identify agonists of the vasopressin 1 receptor (V1R). [Related pubchem assays: 2435 (Primary screen (OXTR agonists in singlicate)), 434991 (Counterscreen (V1R agonists in triplicate)), 2482 (Summary (OXTR agonists)) …; type: functional
Protein RecA = molecular target: T2, Protein RecA (Mycobacterium tuberculosis, UniProt P9WHJ3); assay: Fluorescence Cell-Free Homogeneous Dose Retest to Identify Inhibitors of RecA-Intein Splicing Activity. [Related pubchem assays (depositor defined):AID2097, AID2223, AID489010, AID492950]; type: functional
T2 sequence (P9WHJ3 whole entry): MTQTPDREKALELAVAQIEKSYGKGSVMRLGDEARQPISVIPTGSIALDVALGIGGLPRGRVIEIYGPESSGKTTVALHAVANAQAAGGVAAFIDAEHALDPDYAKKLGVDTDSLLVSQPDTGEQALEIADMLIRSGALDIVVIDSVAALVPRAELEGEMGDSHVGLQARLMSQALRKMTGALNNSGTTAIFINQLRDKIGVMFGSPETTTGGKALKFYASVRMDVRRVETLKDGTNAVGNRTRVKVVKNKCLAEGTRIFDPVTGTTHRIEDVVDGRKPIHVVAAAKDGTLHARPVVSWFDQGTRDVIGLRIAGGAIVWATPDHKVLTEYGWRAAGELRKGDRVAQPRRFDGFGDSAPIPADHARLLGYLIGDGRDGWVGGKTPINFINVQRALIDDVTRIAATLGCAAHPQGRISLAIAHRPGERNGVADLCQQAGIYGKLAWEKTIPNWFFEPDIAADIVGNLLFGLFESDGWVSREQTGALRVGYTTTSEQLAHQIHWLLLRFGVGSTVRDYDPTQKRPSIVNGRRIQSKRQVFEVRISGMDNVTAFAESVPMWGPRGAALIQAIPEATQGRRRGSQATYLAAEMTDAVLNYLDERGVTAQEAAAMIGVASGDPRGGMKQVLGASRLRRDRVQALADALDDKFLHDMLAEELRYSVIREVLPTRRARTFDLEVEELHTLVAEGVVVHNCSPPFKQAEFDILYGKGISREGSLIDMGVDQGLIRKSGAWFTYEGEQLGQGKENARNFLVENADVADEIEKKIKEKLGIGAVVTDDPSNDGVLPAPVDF

Oxytocin receptor = Oxytocin receptor (Homo sapiens, UniProt P30559); assay: Fluorescence-based cell-based high throughput dose response assay for agonists of the Oxytocin Receptor (OXTR). [Related pubchem assays: 2435 (Primary screen (OXTR agonists in singlicate)), 434991 (Counterscreen (V1R agonists in triplicate)), 2482 (Summary (OXTR agonists)), 434963 (Confirmation screen (OXTR agonists in triplicate))]; type: functional
[9] = half-maximal inhibitory concentration for glucagon-like peptide-1 release, STC-1 cell line, dose-response (AID 1117345); type: functional, cell-based
Streptokinase A = molecular target: T3, Streptokinase A (Streptococcus pyogenes serotype M1, UniProt P10520); assay: S. pyogenes streptokinase expression inhibitors, potency, dose response, plasminogen activation absorbance, OD405 (AID 1914); type: functional, Streptococcus pyogenes M1 GAS;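 note: secreted streptokinase activity via plasminogen activation per viability signal from cell pellet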
T3 sequence (P10520 whole entry): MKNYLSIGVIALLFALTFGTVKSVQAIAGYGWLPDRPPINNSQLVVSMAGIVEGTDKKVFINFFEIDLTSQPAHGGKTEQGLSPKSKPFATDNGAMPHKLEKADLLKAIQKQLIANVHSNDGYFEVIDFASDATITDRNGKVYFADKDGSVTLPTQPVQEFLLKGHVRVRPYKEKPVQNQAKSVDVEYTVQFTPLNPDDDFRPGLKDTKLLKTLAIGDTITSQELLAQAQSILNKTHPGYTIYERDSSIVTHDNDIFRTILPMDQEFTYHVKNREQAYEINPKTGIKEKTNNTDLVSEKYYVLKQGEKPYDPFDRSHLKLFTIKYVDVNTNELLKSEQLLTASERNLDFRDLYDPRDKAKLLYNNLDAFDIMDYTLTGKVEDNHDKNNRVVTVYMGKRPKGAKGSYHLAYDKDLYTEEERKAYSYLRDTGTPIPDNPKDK

[10] = microbe, parasite or virus in culture; type: functional; settings: Mycobacterium tuberculosis
[11] = molecular target: Heat shock protein HSP 90-alpha (Homo sapiens, UniProt P07900); type: functional, organism-based
INS1 = assay: beta cell apoptosis inhibitors, cytokine rescue, dose response, luminescence, retest (AID 449756); type: functional, cell-based; settings: Rattus norvegicus;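 note: cell death triggered by IL-1 beta plus TNF-alpha plus IFN-gamma mixture; protective hits raise ATP signal compared with cytokine alone wells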
[12] = molecular target: T4, Replicative DNA helicase DnaB (Mycobacterium tuberculosis, UniProt P9WMR3); assay: DnaB intein splicing inhibitors, dose response, biochemical, cell-free fluorescence (AID 449749); type: functional
T4 sequence (P9WMR3 whole entry): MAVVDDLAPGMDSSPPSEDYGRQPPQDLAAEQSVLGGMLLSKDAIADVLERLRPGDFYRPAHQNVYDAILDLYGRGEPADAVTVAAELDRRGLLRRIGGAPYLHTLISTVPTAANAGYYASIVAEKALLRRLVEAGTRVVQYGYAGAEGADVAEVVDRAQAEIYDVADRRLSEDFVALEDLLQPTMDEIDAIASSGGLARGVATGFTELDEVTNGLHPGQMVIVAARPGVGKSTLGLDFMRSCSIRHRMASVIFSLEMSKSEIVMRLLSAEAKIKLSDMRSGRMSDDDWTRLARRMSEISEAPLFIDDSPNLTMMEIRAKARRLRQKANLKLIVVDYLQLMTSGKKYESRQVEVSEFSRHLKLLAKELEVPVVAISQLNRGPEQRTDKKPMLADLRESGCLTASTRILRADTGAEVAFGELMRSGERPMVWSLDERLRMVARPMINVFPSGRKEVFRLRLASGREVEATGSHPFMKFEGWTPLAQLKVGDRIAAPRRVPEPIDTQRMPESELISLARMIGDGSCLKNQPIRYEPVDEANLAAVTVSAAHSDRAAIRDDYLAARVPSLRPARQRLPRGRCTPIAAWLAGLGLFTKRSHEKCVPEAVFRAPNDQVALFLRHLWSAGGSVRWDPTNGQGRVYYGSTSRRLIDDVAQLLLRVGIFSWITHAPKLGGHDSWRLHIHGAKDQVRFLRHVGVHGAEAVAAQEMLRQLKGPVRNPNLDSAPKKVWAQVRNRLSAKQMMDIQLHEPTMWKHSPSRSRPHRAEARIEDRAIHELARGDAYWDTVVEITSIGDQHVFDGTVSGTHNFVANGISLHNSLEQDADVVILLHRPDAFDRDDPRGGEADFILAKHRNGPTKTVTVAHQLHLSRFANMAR

[13] = molecular target: T5, DNA repair protein RAD52 homolog (Homo sapiens, UniProt P43351); type: functional, biochemical
T5 sequence (P43351 whole entry): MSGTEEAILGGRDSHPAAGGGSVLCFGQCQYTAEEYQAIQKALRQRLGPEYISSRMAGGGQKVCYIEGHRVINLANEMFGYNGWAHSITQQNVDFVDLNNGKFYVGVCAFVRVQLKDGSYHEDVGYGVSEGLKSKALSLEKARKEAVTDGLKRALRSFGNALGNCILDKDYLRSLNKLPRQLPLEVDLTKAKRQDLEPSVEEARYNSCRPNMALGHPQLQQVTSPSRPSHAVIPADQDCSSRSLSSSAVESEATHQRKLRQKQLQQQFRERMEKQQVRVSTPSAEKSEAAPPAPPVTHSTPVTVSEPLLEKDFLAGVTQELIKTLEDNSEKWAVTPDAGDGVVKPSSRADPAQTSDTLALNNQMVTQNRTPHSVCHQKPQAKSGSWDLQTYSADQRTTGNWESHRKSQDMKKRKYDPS

[14] = cytotoxicity toward Colo320 cells – cell-based, CellTiter-Glo luminescence, IC50, dose response (AID 1117334); type: functional; settings: COLO 320
[15] = system: Streptococcus sp. 'group A'; assay: growth inhibition of control SK(-) GAS strain, dose response, counter-screen for streptokinase expression inhibitor project, luminescence, kanamycin, BacTiterGlo, confirmation (AID 1900); type: functional, organism-based
[16] = Concentration-dependent survival of SW480 colon cancer line, luminescence detection with CellTiter-Glo, half-maximal inhibitory concentration (AID 1117338); type: functional
[17] = cytotoxicity toward HCT116 cells – cell-based, CellTiter-Glo luminescence, IC50, dose response (AID 1117332); type: functional; settings: HCT-116
Streptococcus = assay: Group A Streptococcus viability loss, dose response, counter-screen for streptokinase expression inhibitor project, luminescence, BacTiterGlo (AID 1915); type: functional, organism-based;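 note: potency for reduction of bacterial viability or growth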
[18] = cytotoxicity toward HT-29 cells – cell-based, CellTiter-Glo luminescence, IC50, dose response (AID 1117330); type: functional
[19] = RKO cell viability reduction, dose response, CellTiter-Glo luminescence (AID 1117322); type: functional
Vero = Vero cell cytotoxicity, cytotoxicity control for flavivirus capping enzyme inhibitors (AID 588742); type: functional; settings: Chlorocebus sabaeus
[20] = HCT116 cell viability decrease, GSK3B pretreatment – CellTiter-Glo, IC50, dose response (AID 1117339); type: functional; settings: HCT-116
[21] = CellTiter-Glo luminescent dose response of DLD-1 viability loss (AID 1117352); type: functional
[22] = Glucagon-like peptide 1 release potency, NCI-H716 cell line, dose-response, half-maximal inhibitory concentration (AID 1117344); type: functional, cell-based

T1 sequence (Q00975 whole entry): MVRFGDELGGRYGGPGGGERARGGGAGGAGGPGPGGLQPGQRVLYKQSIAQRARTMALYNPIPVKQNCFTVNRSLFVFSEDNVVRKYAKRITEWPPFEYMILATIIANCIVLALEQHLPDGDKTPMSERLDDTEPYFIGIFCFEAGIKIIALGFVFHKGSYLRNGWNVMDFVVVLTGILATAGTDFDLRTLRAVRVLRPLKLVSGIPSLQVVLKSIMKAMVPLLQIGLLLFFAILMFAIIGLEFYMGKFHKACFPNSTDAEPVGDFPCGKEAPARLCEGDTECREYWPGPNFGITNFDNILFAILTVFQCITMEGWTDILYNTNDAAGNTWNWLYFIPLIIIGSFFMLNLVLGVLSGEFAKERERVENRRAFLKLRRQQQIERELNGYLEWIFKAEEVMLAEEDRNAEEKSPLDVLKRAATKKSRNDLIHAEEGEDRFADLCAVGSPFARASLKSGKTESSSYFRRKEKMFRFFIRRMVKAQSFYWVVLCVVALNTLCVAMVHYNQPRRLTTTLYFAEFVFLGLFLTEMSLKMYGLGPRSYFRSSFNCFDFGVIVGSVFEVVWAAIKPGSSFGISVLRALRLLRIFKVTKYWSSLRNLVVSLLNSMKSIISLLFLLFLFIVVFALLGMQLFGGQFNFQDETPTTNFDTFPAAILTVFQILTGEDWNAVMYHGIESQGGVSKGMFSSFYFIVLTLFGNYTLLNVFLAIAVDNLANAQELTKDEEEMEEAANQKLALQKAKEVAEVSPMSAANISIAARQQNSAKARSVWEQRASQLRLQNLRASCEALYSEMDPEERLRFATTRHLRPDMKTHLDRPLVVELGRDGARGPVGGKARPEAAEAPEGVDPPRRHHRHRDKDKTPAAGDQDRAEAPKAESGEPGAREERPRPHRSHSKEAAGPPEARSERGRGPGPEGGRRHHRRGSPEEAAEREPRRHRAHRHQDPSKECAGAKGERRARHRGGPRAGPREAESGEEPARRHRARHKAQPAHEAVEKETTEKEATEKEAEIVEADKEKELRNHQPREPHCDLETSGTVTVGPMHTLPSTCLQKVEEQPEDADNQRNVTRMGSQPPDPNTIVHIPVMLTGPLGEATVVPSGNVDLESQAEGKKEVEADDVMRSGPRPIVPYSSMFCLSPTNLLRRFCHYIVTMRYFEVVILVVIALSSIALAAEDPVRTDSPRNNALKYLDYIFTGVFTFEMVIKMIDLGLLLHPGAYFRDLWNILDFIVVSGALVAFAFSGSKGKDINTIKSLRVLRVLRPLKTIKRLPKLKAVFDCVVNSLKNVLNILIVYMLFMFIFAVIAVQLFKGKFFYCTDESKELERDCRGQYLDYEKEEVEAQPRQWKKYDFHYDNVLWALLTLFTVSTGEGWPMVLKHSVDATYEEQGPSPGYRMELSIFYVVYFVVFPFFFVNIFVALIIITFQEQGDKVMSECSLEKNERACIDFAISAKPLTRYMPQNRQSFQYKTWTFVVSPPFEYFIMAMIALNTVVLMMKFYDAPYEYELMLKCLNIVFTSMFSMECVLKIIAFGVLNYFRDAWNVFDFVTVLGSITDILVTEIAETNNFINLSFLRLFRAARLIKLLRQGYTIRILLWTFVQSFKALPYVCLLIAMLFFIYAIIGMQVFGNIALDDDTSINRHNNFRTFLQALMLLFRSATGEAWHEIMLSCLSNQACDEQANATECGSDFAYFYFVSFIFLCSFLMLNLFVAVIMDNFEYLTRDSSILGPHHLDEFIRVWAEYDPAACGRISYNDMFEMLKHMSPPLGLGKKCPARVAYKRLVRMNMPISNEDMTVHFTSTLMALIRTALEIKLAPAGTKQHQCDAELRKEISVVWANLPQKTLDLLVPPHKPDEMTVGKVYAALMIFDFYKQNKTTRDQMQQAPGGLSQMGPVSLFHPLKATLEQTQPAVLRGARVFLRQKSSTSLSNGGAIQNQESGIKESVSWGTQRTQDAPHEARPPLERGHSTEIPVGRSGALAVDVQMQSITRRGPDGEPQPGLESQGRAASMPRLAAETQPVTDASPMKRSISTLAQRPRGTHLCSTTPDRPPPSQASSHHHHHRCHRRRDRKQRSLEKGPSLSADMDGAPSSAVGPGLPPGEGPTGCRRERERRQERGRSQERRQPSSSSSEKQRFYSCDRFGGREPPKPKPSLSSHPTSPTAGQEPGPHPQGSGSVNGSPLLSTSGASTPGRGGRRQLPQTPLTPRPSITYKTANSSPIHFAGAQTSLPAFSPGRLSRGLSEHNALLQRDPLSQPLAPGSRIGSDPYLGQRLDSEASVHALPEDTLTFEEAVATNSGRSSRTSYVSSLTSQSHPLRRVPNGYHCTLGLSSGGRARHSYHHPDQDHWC
T1 sequence (Q02410 whole entry): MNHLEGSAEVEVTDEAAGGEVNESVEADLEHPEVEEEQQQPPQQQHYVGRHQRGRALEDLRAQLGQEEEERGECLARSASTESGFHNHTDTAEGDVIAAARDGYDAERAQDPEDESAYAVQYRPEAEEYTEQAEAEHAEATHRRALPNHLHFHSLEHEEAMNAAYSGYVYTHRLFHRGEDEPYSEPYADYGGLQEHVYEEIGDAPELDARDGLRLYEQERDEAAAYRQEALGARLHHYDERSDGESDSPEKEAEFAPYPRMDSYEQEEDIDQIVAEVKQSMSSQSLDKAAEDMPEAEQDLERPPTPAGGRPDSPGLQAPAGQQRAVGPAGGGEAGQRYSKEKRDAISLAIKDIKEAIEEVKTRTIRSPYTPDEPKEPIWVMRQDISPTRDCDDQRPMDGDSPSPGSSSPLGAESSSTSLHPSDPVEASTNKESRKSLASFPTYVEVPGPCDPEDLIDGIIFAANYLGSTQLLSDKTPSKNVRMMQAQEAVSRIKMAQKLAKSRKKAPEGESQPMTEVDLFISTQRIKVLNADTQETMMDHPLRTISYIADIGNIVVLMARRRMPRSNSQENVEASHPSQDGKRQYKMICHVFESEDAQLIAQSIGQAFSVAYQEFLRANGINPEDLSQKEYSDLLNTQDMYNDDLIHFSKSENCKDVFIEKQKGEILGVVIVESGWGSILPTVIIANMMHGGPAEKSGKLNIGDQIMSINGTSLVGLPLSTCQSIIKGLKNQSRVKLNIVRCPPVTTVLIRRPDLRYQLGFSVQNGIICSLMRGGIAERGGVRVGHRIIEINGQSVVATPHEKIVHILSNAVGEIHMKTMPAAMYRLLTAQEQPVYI
Genome polyprotein, sequence (Q2Q167 whole entry): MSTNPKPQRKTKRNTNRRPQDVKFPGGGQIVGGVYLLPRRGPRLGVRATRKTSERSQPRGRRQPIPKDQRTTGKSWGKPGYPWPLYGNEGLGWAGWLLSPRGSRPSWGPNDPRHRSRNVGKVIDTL
Protein-tyrosine kinase 2-beta, sequence (Q14289 whole entry): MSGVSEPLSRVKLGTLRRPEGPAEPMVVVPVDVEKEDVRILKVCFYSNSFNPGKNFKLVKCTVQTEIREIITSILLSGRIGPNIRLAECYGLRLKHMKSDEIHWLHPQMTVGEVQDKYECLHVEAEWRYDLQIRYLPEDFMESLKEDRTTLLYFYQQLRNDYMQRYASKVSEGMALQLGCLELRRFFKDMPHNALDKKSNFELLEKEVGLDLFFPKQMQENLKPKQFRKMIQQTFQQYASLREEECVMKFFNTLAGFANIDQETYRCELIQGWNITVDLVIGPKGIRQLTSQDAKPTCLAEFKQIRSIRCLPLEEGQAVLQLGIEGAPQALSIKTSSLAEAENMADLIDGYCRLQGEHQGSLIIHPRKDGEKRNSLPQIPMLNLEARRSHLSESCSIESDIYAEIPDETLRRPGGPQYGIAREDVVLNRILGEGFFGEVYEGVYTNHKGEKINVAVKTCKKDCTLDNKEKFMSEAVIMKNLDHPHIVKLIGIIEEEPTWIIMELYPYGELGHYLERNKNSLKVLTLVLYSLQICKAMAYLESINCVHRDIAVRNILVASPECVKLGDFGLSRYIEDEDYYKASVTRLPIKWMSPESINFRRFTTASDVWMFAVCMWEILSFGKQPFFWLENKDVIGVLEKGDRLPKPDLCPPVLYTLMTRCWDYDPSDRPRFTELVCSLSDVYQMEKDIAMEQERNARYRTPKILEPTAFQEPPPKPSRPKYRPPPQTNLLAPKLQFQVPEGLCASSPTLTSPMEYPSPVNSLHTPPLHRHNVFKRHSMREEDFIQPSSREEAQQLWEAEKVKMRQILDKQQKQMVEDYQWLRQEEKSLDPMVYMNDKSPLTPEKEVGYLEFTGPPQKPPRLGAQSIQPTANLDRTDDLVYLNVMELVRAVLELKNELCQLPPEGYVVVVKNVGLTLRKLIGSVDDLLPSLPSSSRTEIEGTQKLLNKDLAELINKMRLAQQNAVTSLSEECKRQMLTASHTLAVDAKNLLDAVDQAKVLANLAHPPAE
Photoreceptor-specific nuclear receptor, sequence (Q9Y5X4 whole entry): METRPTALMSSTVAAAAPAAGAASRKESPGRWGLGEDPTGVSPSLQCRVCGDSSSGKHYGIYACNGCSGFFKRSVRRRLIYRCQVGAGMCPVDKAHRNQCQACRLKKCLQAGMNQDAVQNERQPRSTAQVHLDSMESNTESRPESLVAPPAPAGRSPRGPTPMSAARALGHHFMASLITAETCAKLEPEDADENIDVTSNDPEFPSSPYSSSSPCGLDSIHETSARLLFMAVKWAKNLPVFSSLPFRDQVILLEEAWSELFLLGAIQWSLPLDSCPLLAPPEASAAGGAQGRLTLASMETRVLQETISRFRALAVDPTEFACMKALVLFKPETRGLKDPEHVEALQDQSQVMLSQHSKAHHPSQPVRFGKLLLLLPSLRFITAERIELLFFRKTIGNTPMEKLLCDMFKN
Neuropeptides B/W receptor type 1, sequence (P48145 whole entry): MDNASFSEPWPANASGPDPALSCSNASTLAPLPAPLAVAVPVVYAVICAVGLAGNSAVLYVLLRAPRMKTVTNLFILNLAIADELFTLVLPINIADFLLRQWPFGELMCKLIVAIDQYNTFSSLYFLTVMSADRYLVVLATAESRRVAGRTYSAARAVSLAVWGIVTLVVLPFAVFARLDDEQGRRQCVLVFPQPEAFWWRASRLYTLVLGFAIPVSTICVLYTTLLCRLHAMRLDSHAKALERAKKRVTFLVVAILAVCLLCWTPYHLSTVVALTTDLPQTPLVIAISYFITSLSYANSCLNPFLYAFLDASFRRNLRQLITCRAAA

Cc1c(N2C(=O)c3ccc4c5c(ccc(c35)C2=O)CC4)c(=O)n(-c2ccccc2)n1C
IC50 [1]: 15.7 µM (active) | IC50 [2]: > 39.8 µM (not active) | IC50 (Genome polyprotein): > 49.8 µM (not active) | IC50 [3]: > 39.8 µM (not active) | IC50 [4]: 5.83 µM (active) | IC50 [5]: 2.27 µM (active)

COc1cc(/C=C(\C#N)C(=O)Nc2ccc(C(=O)O)cc2)ccc1OC(=O)c1cccc(F)c1
IC50 [6]: 12 µM (not active) | IC50 [7]: 5.86 µM (active)

CCCCCCCCCCCCCCCC[N+](C)(C)CC
IC50 [8]: 0.004 µM (active) | EC50 (Vasopressin V1a receptor): > 3.32 µM (active) | EC50 (Protein RecA): 13.2 µM (active) | EC50 (Oxytocin receptor): > 29.9 µM (not active) | IC50 [9]: > 40 µM (inactive) | EC50 (Streptokinase A): 23.2 µM (inconclusive) | CC50 [10]: 34.8 µM (active) | AC50 [11]: 1.16 µM (active) | AC50 (INS1): 2.97 µM (active) | AC50 [12]: 4.56 µM (active) | AC50 [13]: 8.98 µM (active) | IC50 [14]: 0.0372 µM (active) | EC50 [15]: 1.3 µM (active) | IC50 [16]: 1.24 µM (active) | IC50 [17]: 3.16 µM (active) | EC50 (Streptococcus): 8.57 µM (active) | IC50 [18]: 0.409 µM (active) | IC50 [19]: 0.931 µM (active) | CC50 (Vero): 32.7 µM (active) | IC50 [20]: 2.68 µM (active) | IC50 [21]: 0.74 µM (active) | IC50 [22]: 11.7 µM (inactive)
